Data taken from the supplement of paper PMC7840683.
± gives the standard deviation of the averaged measurements.

System: HepaRG
Experiment: LDH release cytotoxicity, % of total lysis control; higher = more cytotoxic
Details: 48 h
Method in brief: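 On collagen I-coated 96-well plates, single-lot HepaRG cells were exposed for 48 h, in duplicate, to eight-point half-log series of test chemicals beginning at 100 µM. The exposure medium was serum-free induction medium with 0.5% DMSO, and total lysis wells got 0.1% Triton X. Resorufin fluorescence from the CytoTox-ONE reaction, read on a Tecan Safire, reported LDH in 50 µL of spent medium. Percent cytotoxicity came from normalization to on-plate vehicle and total lysis controls, averaged over the duplicates.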

Compound: C=CCc1ccc(OC)c(OC)c1 [Methyleugenol]
- LDH release cytotoxicity (0.03162 µM): -1.16 ± 1.3%
- LDH release cytotoxicity (0.1 µM): -0.0217 ± 1.6%
- LDH release cytotoxicity (0.3162278 µM): -0.545 ± 1.1%
- LDH release cytotoxicity (1 µM): -0.949 ± 0.59%
- LDH release cytotoxicity (3.16228 µM): -0.679 ± 0.11%
- LDH release cytotoxicity (10 µM): -0.724 ± 0.15%
- LDH release cytotoxicity (31.6228 µM): -0.435 ± 0.59%
- LDH release cytotoxicity (100 µM): 0.911 ± 0.18%

Compound: COC(=O)c1ccc(O)cc1 [Methylparaben]
- LDH release cytotoxicity (0.03162 µM): -1.06 ± 1.8%
- LDH release cytotoxicity (0.1 µM): -1.64 ± 0.78%
- LDH release cytotoxicity (0.3162278 µM): -1.84 ± 0.091%
- LDH release cytotoxicity (1 µM): -0.442 ± 2.1%
- LDH release cytotoxicity (3.16228 µM): -0.946 ± 0.85%
- LDH release cytotoxicity (10 µM): -0.563 ± 0.36%
- LDH release cytotoxicity (31.6228 µM): -0.515 ± 0.3%
- LDH release cytotoxicity (100 µM): 0.108 ± 1.2%

Compound: CCc1cccc(C)c1N(C(=O)CCl)C(C)COC (stereo not given) [Metolachlor]
- LDH release cytotoxicity (0.03162 µM): -2.35 ± 0.41%
- LDH release cytotoxicity (0.1 µM): -1.88 ± 0.93%
- LDH release cytotoxicity (0.3162278 µM): -2.04 ± 0.75%
- LDH release cytotoxicity (1 µM): -1.88 ± 0.4%
- LDH release cytotoxicity (3.16228 µM): -1.33 ± 0.23%
- LDH release cytotoxicity (10 µM): -1.85 ± 1.5%
- LDH release cytotoxicity (31.6228 µM): -1.51 ± 0.46%
- LDH release cytotoxicity (100 µM): -1.21 ± 0.023%

Compound: CSc1nnc(C(C)(C)C)c(=O)n1N [Metribuzin]
- LDH release cytotoxicity (0.03162 µM): -0.754 ± 0.83%
- LDH release cytotoxicity (0.1 µM): 0.58 ± 1%
- LDH release cytotoxicity (0.3162278 µM): -0.959 ± 0.2%
- LDH release cytotoxicity (1 µM): -1.09 ± 0.56%
- LDH release cytotoxicity (3.16228 µM): -1.24 ± 0.2%
- LDH release cytotoxicity (10 µM): -0.985 ± 0.14%
- LDH release cytotoxicity (31.6228 µM): -0.751 ± 0.37%
- LDH release cytotoxicity (100 µM): 0.317 ± 0.26%

Compound: COC(=O)C=C(C)OP(=O)(OC)OC [Mevinphos]
- LDH release cytotoxicity (0.03162 µM): -1.49 ± 1.2%
- LDH release cytotoxicity (0.1 µM): -1.28 ± 0.3%
- LDH release cytotoxicity (0.3162278 µM): -0.769 ± 1.7%
- LDH release cytotoxicity (1 µM): -2.52 ± 0.67%
- LDH release cytotoxicity (3.16228 µM): -2.16 ± 0.68%
- LDH release cytotoxicity (10 µM): -0.179 ± 0.88%
- LDH release cytotoxicity (31.6228 µM): -1.3 ± 0.79%
- LDH release cytotoxicity (100 µM): 1.1 ± 2%

Compound: CN(C)c1ccc(C(=O)c2ccc(N(C)C)cc2)cc1 [Michler's ketone]
- LDH release cytotoxicity (0.03162 µM): -2.16 ± 0.051%
- LDH release cytotoxicity (0.1 µM): -1.79 ± 0.22%
- LDH release cytotoxicity (0.3162278 µM): -1.41 ± 0.071%
- LDH release cytotoxicity (1 µM): -2.73 ± 1%
- LDH release cytotoxicity (3.16228 µM): 2.66 ± 0.82%
- LDH release cytotoxicity (10 µM): 9.37 ± 0.13%
- LDH release cytotoxicity (31.6228 µM): 7.06 ± 0.09%
- LDH release cytotoxicity (100 µM): 12.9 ± 2%

Compound: CC#CC1(O)CCC2C3CCC4=CC(=O)CCC4=C3C(c3ccc(N(C)C)cc3)CC21C (stereo not given) [Mifepristone]
- LDH release cytotoxicity (0.03162 µM): -0.549 ± 0.3%
- LDH release cytotoxicity (0.1 µM): -1.11 ± 0.089%
- LDH release cytotoxicity (0.3162278 µM): -0.633 ± 0.052%
- LDH release cytotoxicity (1 µM): 2.47 ± 0.61%
- LDH release cytotoxicity (3.16228 µM): 17.4 ± 0.87%
- LDH release cytotoxicity (10 µM): 31.5 ± 1.6%
- LDH release cytotoxicity (31.6228 µM): 42.2 ± 5.7%
- LDH release cytotoxicity (100 µM): 60.9 ± 3%

Compound: ClC1(Cl)C2(Cl)C3(Cl)C4(Cl)C(Cl)(Cl)C5(Cl)C3(Cl)C1(Cl)C5(Cl)C24Cl (stereo not given) [Mirex]
- LDH release cytotoxicity (0.031623 µM): 1.5 ± 0.54%
- LDH release cytotoxicity (0.1 µM): -1.3 ± 1.1%
- LDH release cytotoxicity (0.316228 µM): -1.85 ± 0.6%
- LDH release cytotoxicity (1 µM): -2.25 ± 0.86%
- LDH release cytotoxicity (3.16228 µM): -1.59 ± 0.079%
- LDH release cytotoxicity (10 µM): -1.21 ± 0.25%
- LDH release cytotoxicity (31.6228 µM): -1.01 ± 0.41%
- LDH release cytotoxicity (100 µM): 0.619 ± 0.41%

Compound: CCSC(=O)N1CCCCCC1 [Molinate]
- LDH release cytotoxicity (0.03162 µM): -2.17 ± 0.39%
- LDH release cytotoxicity (0.1 µM): -2.09 ± 0.56%
- LDH release cytotoxicity (0.3162278 µM): -1.9 ± 0.36%
- LDH release cytotoxicity (1 µM): -2.25 ± 0.77%
- LDH release cytotoxicity (3.16228 µM): -1.81 ± 0.052%
- LDH release cytotoxicity (10 µM): -1.34 ± 0.51%
- LDH release cytotoxicity (31.6228 µM): -0.237 ± 0.64%
- LDH release cytotoxicity (100 µM): 1.3 ± 0.16%

Compound: O=C(O)c1ccccc1C(=O)OCc1ccccc1 [Monobenzyl phthalate]
- LDH release cytotoxicity (0.03162 µM): -6.32 ± 1.2%
- LDH release cytotoxicity (0.1 µM): -7.14 ± 0.13%
- LDH release cytotoxicity (0.3162278 µM): -7.38 ± 0.78%
- LDH release cytotoxicity (1 µM): -7.25 ± 1%
- LDH release cytotoxicity (3.16228 µM): -7.03 ± 0.21%
- LDH release cytotoxicity (10 µM): -6.25 ± 0.21%
- LDH release cytotoxicity (31.6228 µM): -5.79 ± 1.9%
- LDH release cytotoxicity (100 µM): -5.73 ± 0.38%

Compound: CCCCOC(=O)c1ccccc1C(=O)O [Monobutyl phthalate]
- LDH release cytotoxicity (0.03162 µM): -2.25 ± 1%
- LDH release cytotoxicity (0.1 µM): -2.21 ± 0.79%
- LDH release cytotoxicity (0.3162278 µM): -2.76 ± 0.98%
- LDH release cytotoxicity (1 µM): -3.09 ± 0.93%
- LDH release cytotoxicity (3.16228 µM): -2.68 ± 1.3%
- LDH release cytotoxicity (10 µM): -2.9 ± 1.1%
- LDH release cytotoxicity (31.6228 µM): -2.43 ± 1.4%
- LDH release cytotoxicity (100 µM): -0.95 ± 1.3%

Compound: CNC(=O)C=C(C)OP(=O)(OC)OC [Monocrotophos]
- LDH release cytotoxicity (0.03162 µM): -1.04 ± 1%
- LDH release cytotoxicity (0.1 µM): -1.87 ± 0.34%
- LDH release cytotoxicity (0.3162278 µM): -1.93 ± 1.1%
- LDH release cytotoxicity (1 µM): -1.17 ± 1.1%
- LDH release cytotoxicity (3.16228 µM): -1.61 ± 0.6%
- LDH release cytotoxicity (10 µM): -1.39 ± 0.81%
- LDH release cytotoxicity (31.6228 µM): -0.305 ± 0.93%
- LDH release cytotoxicity (100 µM): -0.571 ± 0.54%

Compound: COC(=O)c1ccccc1C(=O)O [Monomethyl phthalate]
- LDH release cytotoxicity (0.031623 µM): -0.688 ± 1.4%
- LDH release cytotoxicity (0.1 µM): -1.99 ± 0.55%
- LDH release cytotoxicity (0.316228 µM): -2.92 ± 0.47%
- LDH release cytotoxicity (1 µM): -2.55 ± 0.86%
- LDH release cytotoxicity (3.16228 µM): -1.73 ± 0.51%
- LDH release cytotoxicity (10 µM): -1.97 ± 0.5%
- LDH release cytotoxicity (31.6228 µM): -0.563 ± 0.24%
- LDH release cytotoxicity (100 µM): 0.422 ± 0.27%

Compound: CN(C)C(=O)Nc1ccc(Cl)cc1 [Monuron]
- LDH release cytotoxicity (0.031623 µM): -1.01 ± 1.8%
- LDH release cytotoxicity (0.1 µM): -1.82 ± 0.043%
- LDH release cytotoxicity (0.316228 µM): -2.23 ± 0.4%
- LDH release cytotoxicity (1 µM): -2.41 ± 0.67%
- LDH release cytotoxicity (3.16228 µM): -2.49 ± 0.18%
- LDH release cytotoxicity (10 µM): -1.39 ± 0.62%
- LDH release cytotoxicity (31.6228 µM): -0.555 ± 1.5%
- LDH release cytotoxicity (100 µM): 0.589 ± 0.75%

Compound: CCCCC(C#N)(Cn1cncn1)c1ccc(Cl)cc1 (stereo not given) [Myclobutanil]
- LDH release cytotoxicity (0.031623 µM): 0.809 ± 1.1%
- LDH release cytotoxicity (0.1 µM): 0.0936 ± 0.35%
- LDH release cytotoxicity (0.316228 µM): -0.274 ± 0.61%
- LDH release cytotoxicity (1 µM): -0.556 ± 0.71%
- LDH release cytotoxicity (3.16228 µM): -7.8 ± 0.19%
- LDH release cytotoxicity (10 µM): 8.33 ± 0.4%
- LDH release cytotoxicity (31.6228 µM): 0.7089 ± 0.0019%
- LDH release cytotoxicity (100 µM): 7.68 ± 2.1%

Compound: C=CC(=C)CCC=C(C)C [Myrcene]
- LDH release cytotoxicity (0.031623 µM): -1.27 ± 1.6%
- LDH release cytotoxicity (0.1 µM): -2.39 ± 1%
- LDH release cytotoxicity (0.316228 µM): -2.35 ± 0.3%
- LDH release cytotoxicity (1 µM): -1.45 ± 0.82%
- LDH release cytotoxicity (3.16228 µM): -1.74 ± 1.4%
- LDH release cytotoxicity (10 µM): -1.93 ± 0.083%
- LDH release cytotoxicity (31.6228 µM): -1.8 ± 0.49%
- LDH release cytotoxicity (100 µM): 0.279 ± 0.4%

Compound: C=CC(=O)NCNC(=O)C=C [N,N'-Methylenebisacrylamide]
- LDH release cytotoxicity (0.03162 µM): -0.744 ± 0.34%
- LDH release cytotoxicity (0.1 µM): -0.797 ± 0.92%
- LDH release cytotoxicity (0.3162278 µM): -0.644 ± 0.19%
- LDH release cytotoxicity (1 µM): -1.4 ± 0.16%
- LDH release cytotoxicity (3.16228 µM): -0.3 ± 1.1%
- LDH release cytotoxicity (10 µM): -0.328 ± 0.92%
- LDH release cytotoxicity (31.6228 µM): -0.405 ± 0.65%
- LDH release cytotoxicity (100 µM): 1.88 ± 0.48%

Compound: Cc1ccc(N(C)C)cc1 [N,N,4-Trimethylaniline]
- LDH release cytotoxicity (0.03162 µM): -1.35 ± 0.18%
- LDH release cytotoxicity (0.1 µM): -2.34 ± 0.1%
- LDH release cytotoxicity (0.3162278 µM): -1.31 ± 0.2%
- LDH release cytotoxicity (1 µM): -1.01 ± 0.47%
- LDH release cytotoxicity (3.16228 µM): -1.56 ± 1.1%
- LDH release cytotoxicity (10 µM): -0.631 ± 0.84%
- LDH release cytotoxicity (31.6228 µM): 0.0145 ± 0.88%
- LDH release cytotoxicity (100 µM): 1.9 ± 0.59%

Compound: CCN(CC)c1ccccc1 [N,N-Diethylaniline]
- LDH release cytotoxicity (0.03162 µM): -1.55 ± 0.24%
- LDH release cytotoxicity (0.1 µM): -1.44 ± 0.47%
- LDH release cytotoxicity (0.3162278 µM): -1.37 ± 0.23%
- LDH release cytotoxicity (1 µM): -1.59 ± 0.4%
- LDH release cytotoxicity (3.16228 µM): -0.839 ± 0.86%
- LDH release cytotoxicity (10 µM): -1.07 ± 0.4%
- LDH release cytotoxicity (31.6228 µM): -0.362 ± 0.47%
- LDH release cytotoxicity (100 µM): 0.493 ± 0.011%

Compound: CCN(CC)CCO [N,N-Diethylethanolamine]
- LDH release cytotoxicity (0.03162 µM): -0.085 ± 0.14%
- LDH release cytotoxicity (0.1 µM): -0.79 ± 0.26%
- LDH release cytotoxicity (0.3162278 µM): -0.301 ± 0.27%
- LDH release cytotoxicity (1 µM): -0.496 ± 0.54%
- LDH release cytotoxicity (3.16228 µM): -0.856 ± 0.15%
- LDH release cytotoxicity (10 µM): -0.12 ± 0.4%
- LDH release cytotoxicity (31.6228 µM): 0.244 ± 0.28%
- LDH release cytotoxicity (100 µM): 1.74 ± 0.11%
